# Measurements as given in patent US20100010214A1, “LYOPHILIZED PREPARATION OF 1-METHYLCARBAPENEM” (DAIICHI SANKYO COMPANY, LIMITED, priority 2006, published 2010).
# Test: Solubility of compound (I) in water at predetermined pH
# Assay type: physicochemical
# Details: water for injection, ice-cold, pH adjusted with HCl/NaOH; solubility increased with decrease in pH
# Protocol: Method for Measuring Solubility of Compound (I):
# Compound (I) (in an amount so that concentration of compound (I) in the aqueous solution becomes 300 mg/g) is weighed in a beaker. 15 mL of water for injection cooled to 5° C. is added, and the solution is stirred using a stirrer under ice-cold conditions for 30 minutes. While stirring, adjustment to the predetermined pH is conducted by dropwise addition of 1N hydrochloric acid or 1N sodium hydroxide aqueous solution, and the pH is maintained. After stirring is completed, a filtration filter (for example, Ekicrodisc 0.45 μm HT-Tuffryn, Gelman Science Japan, Ltd.) is used for filtration, and the amount of compound (I) in the filtrate is measured by the quantitative HPLC method which is similar to Test Example 1 described later, and thus solubility of compound (I) is obtained.
structure (smiles),measurement,value
"C[C@@H](O)[C@H]1C(=O)N2C(C(=O)O)=C(S[C@H]3C[C@@H](C(=O)N4CC[C@H](NC(=O)CNC(=N)N)C4)N(C)C3)[C@H](C)[C@H]12 [Compound (I), (1R,5S,6S)-6-[(1R)-1-hydroxyethyl]-1-methyl-2-[(2S,4S)-2-[(3S)-3-(2-guanidinoacetylamino)pyrrolidin-1-ylcarbonyl]-1-methylpyrrolidin-4-ylthio]-1-carbapen-2-em-3-carboxylic acid]",Solubility in water,solubility sufficient for the production of the preparation at pH 7 or lower
